Measurements as given in patent publication US8980877B2, “Spirocyclic derivatives as histone deacetylase inhibitors” (DAC S.R.L., priority 2008, dated 2015).

Legend:
[1] = system: HDAC (nuclear fraction of Hela cells); assay: Assay of enzyme inhibition of HDAC (BIOMOL Kit); type: biochemical; details: substrate 200 μM, 15 min at RT, fluorescence
Experimental: The in-vitro activity of HDAC inhibitors was assayed using a BIOMOL Kit, according to the instructions from the manufacturer (Biomolecular Research Laborator). 15 μl of 30× diluted nuclear fraction of Hela cells, was diluted to 50 μl with the assay buffer containing the HDAC inhibitor and the substrate (lysine with acetylated amino group on the side chain) at a concentration of 200 μM. The samples were incubated for 15 min at RT and then exposed to a developer (10 min at RT). In this last step a fluorophore was produced, whose fluorescence was measured using an excitation wavelength of 355 nm and an emission at 460 nm. The IC50 was calculated using GraphPad Software.

K562 cells = assay: Cell growth, CellTiter-Glo Luminescent Cell Viability Assay, K562; type: cell-based; details: Homo sapiens, 72 h incubation, read-out: K562 (antiproliferative assay IC50)
Text: (§1) CellTiter-Glo® Luminescent Cell Viability Assay (Promega) is a homogeneous method of determining the number of viable cells in culture based on quantitation of the present ATP, which indicates the presence of metabolically active cells. The homogeneous assay procedure involves addition of a single reagent (CellTiter-Glo® Reagent) directly to the cells, which leads to cell lysis and generation of a luminescent signal proportional to the amount of the ATP and the number of cells present in culture. The assay relies on the properties of a proprietary thermostable luciferase (Ultra-Glo® recombinant luciferase), which generates a luminescent signal.
(§2) K562, A549, and HCT-116 cells, in exponential growth, were incubated for 72 h with different concentrations of the inhibitors. After 72 h, a volume of CellTiter-Glo® Reagent equal to the volume of cell culture medium was added. The content was mixed for 2 min to induce cell lysis. The luminescence was recorded after further 10 min at RT in order to obtain a stable luminescent signal.
(§3) The IC50 was calculated using GraphPad Software.

A549 cells = assay: Cell growth, CellTiter-Glo Luminescent Cell Viability Assay, A549; type: cell-based; details: Homo sapiens, 72 h incubation, read-out: A549 (antiproliferative assay IC50)
Text: as §1, §2, §3

HCT-116 cells = assay: Cell growth, CellTiter-Glo Luminescent Cell Viability Assay, HCT-116; type: cell-based; details: Homo sapiens, 72 h incubation, read-out: HCT116 (antiproliferative assay IC50)
Text: as §1, §2, §3

Row | SMILES | IC50 [1] | also measured
1 | Cn1cc(CN2CCC3(CC(=O)c4cc(/C=C/C(=O)NO)ccc4O3)C2)c2ccccc21 (racemic) [Example 10, (±)-(E)-3-[1′(1-Methyl-1H-indol-3-ylmethyl)-4-oxo-spiro(chromane-2,3′-pyrrolidine)-6-yl]-N-hydroxy-acrylamide] | ≤ 0.1 µM | –
2 | O=C(/C=C/c1ccc2c(c1)C(=O)CC1(CCCN(Cc3ccc(F)cc3)C1)O2)NO (racemic) [Example 19, (±)-(E)-3-[1′(4-Fluoro-benzyl)-4-oxo-spiro(chromane-2,3′-piperidine)-6-yl]-N-hydroxy-acrylamide] | ≤ 0.1 µM | –
3 | O=C(/C=C/c1ccc2c(c1)C(=O)CC1(CCCN(CCc3ccccc3)CC1)O2)NO (racemic) [Example 28, (±)-(E)-3-[1′(2-Phenyl-ethyl)-4-oxo-spiro(chromane-2,4′-azepane)-6-yl]-N-hydroxy-acrylamide] | ≤ 0.1 µM | –
4 | O=C(/C=C/c1ccc2c(c1)C(=O)NC1(CCCN(Cc3ccccc3)C1)O2)NO (racemic) [Example 40, (±)-(E)-3-{1′-Benzyl-3,4-dihydro-4-oxo-spiro[2H-(1,3)-benzoxazine-2,3′-piperidin]-6-yl}-N-hydroxy-acrylamide] | ≤ 0.1 µM | –
5 | O=C(/C=C/c1ccc2c(c1)C(=O)NC1(CCCN(CCc3ccccc3)C1)O2)NO (racemic) [Example 43, (±)-(E)-3-{1′-(2-Phenyl-ethyl)-3,4-dihydro-4-oxo-spiro[2H-(1,3)-benzoxazine-2,3′-piperidin]-6-yl}-N-hydroxy-acrylamide] | ≤ 0.1 µM | –
6 | O=C(/C=C/c1ccc2c(c1)C(=O)CC1(CCCN(C3CCCC3)C1)O2)NO (racemic) [Example 50, (±)-(E)-3-[1′-Cyclopentyl-4-oxo-spiro(chromane-2,3′-piperidine)-6-yl]-N-hydroxy-acrylamide] | ≤ 0.1 µM | –
7 | O=C(/C=C/c1ccc2c(c1)C(=O)CC1(CN(C(=O)c3ccccc3)C1)O2)NO [Example 37, (E)-3-[1′-Benzoyl-4-oxo-spiro(chromane-2,3′-azetidine)-6-yl]-N-hydroxy-acrylamide] | ≤ 0.1 µM | –
8 | Cn1cc(CN2CC3(CC(=O)c4cc(/C=C/C(=O)NO)ccc4O3)C2)c2ccccc21 [Example 44, (E)-3-[1′-(1-Methyl-1H-indol-3-ylmethyl)-4-oxo-spiro(chromane-2,3′-azetidine)-6-yl]-N-hydroxy-acrylamide] | ≤ 0.1 µM | –
9 | CO/N=C1/CC2(CCCN(Cc3ccc(F)cc3)C2)Oc2ccc(/C=C/C(=O)NO)cc21 (centres unmarked) [Example 53, (E)-3-(1′-(4-Fluorobenzyl)-4-(methoxyimino)spiro[chroman-2,3′-piperidine]-6-yl)-N-hydroxyacrylamide] | ≥ 1 µM | IC50 (K562 cells): 1 to 3 µM; IC50 (A549 cells): ≥ 3 µM; IC50 (HCT-116 cells): 1 to 3 µM
10 | O=C(/C=C/c1ccc2c(c1)C(=NO)CC1(CCCN(C3CCCC3)C1)O2)NO (centres unmarked) [Example 54, (E)-3-(1′-Cyclopentyl-4-(hydroxyimino)spiro[chroman-2,3′-piperidine]-6-yl)-N-hydroxyacrylamide] | ≤ 0.1 µM | –
11 | O=C(/C=C/c1ccc2c(c1)/C(=N\OCc1ccccc1)CC1(CCCN(CCc3ccccc3)C1)O2)NO (centres unmarked) [Example 55, (E)-3-(4-(Benzyloxyimino)-1′-phenethylspiro[chroman-2,3′-piperidine]-6-yl)-N-hydroxyacrylamide] | ≥ 1 µM | IC50 (K562 cells): ≤ 1 µM; IC50 (A549 cells): 1 to 3 µM; IC50 (HCT-116 cells): ≤ 1 µM

Further lines, with some results ahead:

Row | IC50 [1] | SMILES | also measured
12 | ≤ 0.1 µM | O=C(/C=C/c1ccc2c(c1)C(=O)CC1(CCN(Cc3ccccc3)C1)O2)NO (racemic) [Example 2, (±)-(E)-3-[1′-Benzyl-4-oxo-spiro(chromane-2,3′-pyrrolidine)-6-yl]-N-hydroxy-acrylamide] | –
13 | ≤ 0.1 µM | O=C(/C=C/c1ccc2c(c1)C(=O)CC1(CCN(CCc3ccccc3)C1)O2)NO (racemic) [Example 9, (±)-(E)-3-[1′-(2-Phenyl-ethyl)-4-oxo-spiro(chromane-2,3′-pyrrolidine)-6-yl]-N-hydroxy-acrylamide] | –
14 | ≤ 0.1 µM | O=C(/C=C/c1ccc2c(c1)C(=O)CC1(CCCN(Cc3ccccc3)C1)O2)NO (racemic) [Example 13, (±)-(E)-3-[1′Benzyl-4-oxo-spiro(chromane-2,3′-piperidine)-6-yl]-N-hydroxy-acrylamide] | –
15 | ≤ 0.1 µM | O=C(/C=C/c1ccc2c(c1)C(=O)CC1(CCCN(CCc3ccccc3)C1)O2)NO (racemic) [Example 20, (±)-(E)-3-[1′-(2-Phenyl-ethyl)-4-oxo-spiro(chromane-2,3′-piperidine)-6-yl]-N-hydroxy-acrylamide] | –
16 | ≤ 0.1 µM | O=C(/C=C/c1ccc2c(c1)C(=O)CC1(CCCN(Cc3ccccc3)CC1)O2)NO (racemic) [Example 23, (±)-(E)-3-[1′-Benzyl-4-oxo-spiro(chromane-2,4′-azepane)-6-yl]-N-hydroxy-acrylamide] | –
17 | 0.1 to 1 µM | O=C(/C=C/c1ccc2c(c1)C(=O)CC1(CCCN(Cc3ccccc3)C1)O2)NO (single isomer, unassigned; (+)) [Example 18, (+)-(E)-3-[1′-Benzyl-4-oxo-spiro(chromane-2,3′-piperidine)-6-yl]-N-hydroxy-acrylamide] | –
18 | ≤ 0.1 µM | O=C(/C=C/c1ccc2c(c1)C(=O)CC1(CCN(Cc3ccccc3)C1)O2)NO (single isomer, unassigned; (-)) [Example 3, (−)-(E)-3-[1′-Benzyl-4-oxo-spiro(chromane-2,3′-pyrrolidine)-6-yl]-N-hydroxy-acrylamide] | –
19 | ≤ 0.1 µM | O=C(/C=C/c1ccc2c(c1)C(=O)CC1(CCCN(Cc3ccccc3)C1)O2)NO (single isomer, unassigned; (-)) [Example 17, (−)-(E)-3-[1′-Benzyl-4-oxo-spiro(chromane-2,3′-piperidine)-6-yl]-N-hydroxy-acrylamide] | –
20 | ≤ 0.1 µM | O=C(/C=C/c1ccc2c(c1)C(=O)CC1(CN(Cc3ccccc3)C1)O2)NO [Example 31, (E)-3-[1′-Benzyl-4-oxo-spiro(chromane-2,3′-azetidine)-6-yl]-N-hydroxy-acrylamide] | –
